# Assay results taken from PubChem BioAssay (NCI).
#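 Each compound was tested at five concentrations against cells in 96-well plates for 48 hours. TGI marks complete inhibition of growth.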
# Experiments:
# Assay in all cases: NCI-60 cell line screen, 48 h
# PC-3 prostate = system: PC-3 prostate
# K-562 leukemia = system: K-562 leukemia
# MDA-MB-231 breast = system: MDA-MB-231 breast
# SK-MEL-28 melanoma = system: SK-MEL-28 melanoma
# NCI-H226 lung = system: NCI-H226 lung
# A549 NSCLC = system: A549 NSCLC
# MDA-MB-435 = system: MDA-MB-435
# OVCAR-4 ovarian = system: OVCAR-4 ovarian
# UACC-62 melanoma = system: UACC-62 melanoma
# NCI-H460 lung = system: NCI-H460 lung
# T-47D breast = system: T-47D breast
# COLO 205 colon = system: COLO 205 colon
# HCC-2998 colon = system: HCC-2998 colon
# EKVX NSCLC = system: EKVX NSCLC
# SW-620 colon = system: SW-620 colon
# NCI/ADR-RES ovarian = system: NCI/ADR-RES ovarian
# SF-268 CNS = system: SF-268 CNS
# KM12 colon = system: KM12 colon
# A498 renal = system: A498 renal
# OVCAR-3 ovarian = system: OVCAR-3 ovarian
# RPMI-8226 leukemia = system: RPMI-8226 leukemia
# HOP-62 NSCLC = system: HOP-62 NSCLC
# MCF7 breast = system: MCF7 breast
# CAKI-1 renal = system: CAKI-1 renal
# MOLT-4 leukemia = system: MOLT-4 leukemia
# SN12C renal = system: SN12C renal
# CCRF-CEM leukemia = system: CCRF-CEM leukemia
# NCI-H522 lung = system: NCI-H522 lung
# SNB-19 CNS = system: SNB-19 CNS
# NCI-H23 lung = system: NCI-H23 lung
# SK-OV-3 ovarian = system: SK-OV-3 ovarian
# SF-539 CNS = system: SF-539 CNS
# 786-0 renal = system: 786-0 renal
# OVCAR-8 ovarian = system: OVCAR-8 ovarian
# MDA-N = system: MDA-N
# IGROV1 ovarian = system: IGROV1 ovarian
# UACC-257 melanoma = system: UACC-257 melanoma
# MALME-3M melanoma = system: MALME-3M melanoma
# TK-10 renal = system: TK-10 renal
# SF-295 CNS = system: SF-295 CNS
# ACHN renal = system: ACHN renal
# HCT-116 colon = system: HCT-116 colon
# HT29 colon = system: HT29 colon
# HOP-92 NSCLC = system: HOP-92 NSCLC
# M14 melanoma = system: M14 melanoma
# DU-145 prostate = system: DU-145 prostate
# SR leukemia = system: SR leukemia
# SK-MEL-5 melanoma = system: SK-MEL-5 melanoma
# UO-31 renal = system: UO-31 renal
# RXF 393 renal = system: RXF 393 renal
# HCT-15 colon = system: HCT-15 colon
# BT-549 breast = system: BT-549 breast
# LOX IMVI melanoma = system: LOX IMVI melanoma
# HS 578T breast = system: HS 578T breast
# HL-60(TB) leukemia = system: HL-60(TB) leukemia
# SNB-75 CNS = system: SNB-75 CNS
# U251 CNS = system: U251 CNS
# OVCAR-5 ovarian = system: OVCAR-5 ovarian
# SK-MEL-2 melanoma = system: SK-MEL-2 melanoma
smiles,measurement,setting,value
O=C(C(Cl)=C(N1CCCCC1)N1CCCCC1)C(Cl)Cl,TGI,PC-3 prostate,> 100 µM
same,TGI,K-562 leukemia,> 100 µM
same,TGI,MDA-MB-231 breast,> 100 µM
same,TGI,SK-MEL-28 melanoma,> 100 µM
same,TGI,NCI-H226 lung,> 100 µM
same,TGI,A549 NSCLC,> 100 µM
same,TGI,MDA-MB-435,> 100 µM
same,TGI,OVCAR-4 ovarian,> 100 µM
same,TGI,UACC-62 melanoma,> 100 µM
same,TGI,NCI-H460 lung,> 100 µM
same,TGI,T-47D breast,> 100 µM
same,TGI,COLO 205 colon,> 100 µM
same,TGI,HCC-2998 colon,> 100 µM
same,TGI,EKVX NSCLC,> 100 µM
same,TGI,SW-620 colon,> 100 µM
same,TGI,NCI/ADR-RES ovarian,> 100 µM
same,TGI,SF-268 CNS,> 100 µM
same,TGI,KM12 colon,> 100 µM
same,TGI,A498 renal,> 100 µM
same,TGI,OVCAR-3 ovarian,> 100 µM
same,TGI,RPMI-8226 leukemia,> 100 µM
same,TGI,HOP-62 NSCLC,> 100 µM
same,TGI,MCF7 breast,> 100 µM
same,TGI,CAKI-1 renal,> 100 µM
same,TGI,MOLT-4 leukemia,> 100 µM
same,TGI,SN12C renal,> 100 µM
same,TGI,CCRF-CEM leukemia,> 100 µM
same,TGI,NCI-H522 lung,> 100 µM
same,TGI,SNB-19 CNS,> 100 µM
same,TGI,NCI-H23 lung,> 100 µM
same,TGI,SK-OV-3 ovarian,> 100 µM
same,TGI,SF-539 CNS,> 100 µM
same,TGI,786-0 renal,> 100 µM
same,TGI,OVCAR-8 ovarian,> 100 µM
same,TGI,MDA-N,> 100 µM
same,TGI,IGROV1 ovarian,> 100 µM
same,TGI,UACC-257 melanoma,> 100 µM
same,TGI,MALME-3M melanoma,> 100 µM
same,TGI,TK-10 renal,> 100 µM
same,TGI,SF-295 CNS,> 100 µM
same,TGI,ACHN renal,> 100 µM
same,TGI,HCT-116 colon,> 100 µM
same,TGI,HT29 colon,> 100 µM
same,TGI,HOP-92 NSCLC,> 100 µM
same,TGI,M14 melanoma,> 100 µM
same,TGI,DU-145 prostate,> 100 µM
same,TGI,SR leukemia,> 100 µM
same,TGI,SK-MEL-5 melanoma,> 100 µM
same,TGI,UO-31 renal,> 100 µM
same,TGI,RXF 393 renal,> 100 µM
same,TGI,HCT-15 colon,> 100 µM
same,TGI,BT-549 breast,> 100 µM
same,TGI,LOX IMVI melanoma,> 100 µM
same,TGI,HS 578T breast,> 100 µM
same,TGI,HL-60(TB) leukemia,> 100 µM
Nc1nc(=O)n(C2OC(CO)C(O)C2O)c2ncc(-c3ccc(-c4ccccc4)cc3)nc12 (stereo not given),TGI,PC-3 prostate,> 100 µM
same,TGI,K-562 leukemia,> 100 µM
same,TGI,MDA-MB-231 breast,57.7 µM
same,TGI,SNB-75 CNS,> 100 µM
same,TGI,NCI-H226 lung,76.3 µM
same,TGI,A549 NSCLC,> 100 µM
same,TGI,MDA-MB-435,> 100 µM
same,TGI,OVCAR-4 ovarian,> 100 µM
same,TGI,UACC-62 melanoma,> 100 µM
same,TGI,NCI-H460 lung,> 100 µM
same,TGI,T-47D breast,> 100 µM
same,TGI,COLO 205 colon,> 100 µM
same,TGI,HCC-2998 colon,> 100 µM
same,TGI,U251 CNS,88.9 µM
same,TGI,EKVX NSCLC,> 100 µM
same,TGI,SW-620 colon,> 100 µM
same,TGI,NCI/ADR-RES ovarian,> 100 µM
same,TGI,SF-268 CNS,> 100 µM
same,TGI,KM12 colon,> 100 µM
same,TGI,A498 renal,> 100 µM
same,TGI,RPMI-8226 leukemia,> 100 µM
same,TGI,HOP-62 NSCLC,> 100 µM
same,TGI,MCF7 breast,> 100 µM
same,TGI,CAKI-1 renal,> 100 µM
same,TGI,MOLT-4 leukemia,> 100 µM
same,TGI,SN12C renal,> 100 µM
same,TGI,CCRF-CEM leukemia,> 100 µM
same,TGI,NCI-H522 lung,> 100 µM
same,TGI,SNB-19 CNS,> 100 µM
same,TGI,NCI-H23 lung,> 100 µM
same,TGI,SK-OV-3 ovarian,> 100 µM
same,TGI,SF-539 CNS,> 100 µM
same,TGI,786-0 renal,> 100 µM
same,TGI,OVCAR-8 ovarian,> 100 µM
same,TGI,MDA-N,> 100 µM
same,TGI,IGROV1 ovarian,> 100 µM
same,TGI,UACC-257 melanoma,> 100 µM
same,TGI,MALME-3M melanoma,> 100 µM
same,TGI,TK-10 renal,> 100 µM
same,TGI,SF-295 CNS,> 100 µM
same,TGI,ACHN renal,> 100 µM
same,TGI,HCT-116 colon,> 100 µM
same,TGI,HT29 colon,> 100 µM
same,TGI,HOP-92 NSCLC,> 100 µM
same,TGI,OVCAR-5 ovarian,> 100 µM
same,TGI,DU-145 prostate,> 100 µM
same,TGI,SR leukemia,> 100 µM
same,TGI,SK-MEL-5 melanoma,> 100 µM
same,TGI,UO-31 renal,> 100 µM
same,TGI,RXF 393 renal,> 100 µM
same,TGI,HCT-15 colon,> 100 µM
same,TGI,BT-549 breast,> 100 µM
same,TGI,SK-MEL-2 melanoma,> 100 µM
same,TGI,LOX IMVI melanoma,> 100 µM
same,TGI,HS 578T breast,> 100 µM
